This passage reports IC50 results from patent publication US10329282B2, “Rho-associated protein kinase inhibitor, pharmaceutical composition comprising the same, as well as preparation method and use thereof” (Beijing Tide Pharmaceutical Co., Ltd., priority 2017, dated 2019).

Each structure is given as a SMILES string.

Chain of ROCK2 (O75116 1-553): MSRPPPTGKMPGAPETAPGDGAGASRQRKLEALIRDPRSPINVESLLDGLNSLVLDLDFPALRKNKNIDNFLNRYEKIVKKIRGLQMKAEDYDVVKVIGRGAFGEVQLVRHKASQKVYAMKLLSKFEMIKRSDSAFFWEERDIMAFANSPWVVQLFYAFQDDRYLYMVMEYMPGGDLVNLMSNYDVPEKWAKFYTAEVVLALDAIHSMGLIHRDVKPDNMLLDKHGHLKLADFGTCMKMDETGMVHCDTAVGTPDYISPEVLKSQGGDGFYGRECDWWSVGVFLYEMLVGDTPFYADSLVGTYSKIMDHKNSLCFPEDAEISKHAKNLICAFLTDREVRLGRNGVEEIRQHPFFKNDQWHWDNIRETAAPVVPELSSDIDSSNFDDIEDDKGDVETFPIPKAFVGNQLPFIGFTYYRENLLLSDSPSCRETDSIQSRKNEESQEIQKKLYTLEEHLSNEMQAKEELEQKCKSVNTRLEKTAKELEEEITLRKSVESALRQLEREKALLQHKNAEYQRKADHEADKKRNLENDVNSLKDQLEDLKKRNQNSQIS

The target of this experiment is ROCK2 (Homo sapiens (Human), UniProt O75116). As to the kind of experiment: ROCK2 kinase IC50 assay (CISBIO HTRF KinEASE-STK S2 kit). It counts as biochemical. The conditions noted are these: ROCK2 from Carna Biosciences, 2 h incubation at room temperature. The essentials:
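ROCK2 reaction with STK-S2 substrate and ATP (5× working solutions 1.5 μM each), 2 h at room temperature; 9-point compound dilutions from 10000 nM. HTRF 665/615 emission ratio gave % inhibition versus kinase and no-kinase controls; IC50 by curve fit.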
Background: Time-resolved FRET reads energy transfer from a long-lived donor to a nearby acceptor.
For orientation: IC50 means the midpoint of a concentration-inhibition curve. A high value points to weaker potency. As for `CN1CCC(N2CCC(NC(=O)c3cc4ccc(-c5nccc(Nc6ccc7[nH]ncc7c6)n5)cc4[nH]3)CC2)CC1` [TDI01317, 6-(4-((1H-indazol-5-yl)amino)pyrimidin-2-yl)-N-(1′-methyl-[1,4′-bipiperidin]-4-yl)-1H-indole-2-carboxamide], the IC50 is 0.112 µM. As for `CN(CC(F)(F)F)C(=O)c1cc2ccc(-c3ncc(F)c(Nc4ccc(-c5cn[nH]c5)cc4)n3)cc2[nH]1` [TDI01426], the figure is 0.365 µM; as for `O=C(NC1CCN(c2ccncc2Cl)CC1)c1cc2ccc(-c3nccc(Nc4ccc(-c5cn[nH]c5)cc4)n3)cc2[nH]1` [TDI01847B, 6-(4-((4-(1H-pyrazol-4-yl)phenyl)amino)pyrimidin-2-yl)-N-(1-(3-chloropyridin-4-yl)piperidin-4-yl)-1H-indole-2-carboxamide], 0.026 µM.

As for `CC(C)NC(=O)c1cc2ccc(-c3nc(Nc4ccc5[nH]ncc5c4)c4cc[nH]c4n3)cc2[nH]1` [TDI01143, 6-(4-((1H-indazol-5-yl)amino)-7H-pyrrolo[2,3-d]pyrimidin-2-yl)-N-isopropyl-1H-indole-2-carboxamide], the IC50 came out at 0.072 µM. The figure for `CC(C)NC(=O)C1Cc2ccc(-c3nccc(Nc4ccc5[nH]ncc5c4)n3)cc2N1` (stereo not shown) [TDI01292, 6-(4-((1H-indazol-5-yl)amino)pyrimidin-2-yl)-N-isopropylindoline-2-carboxamide] is 0.242 µM; for `O=C(Nc1cn[nH]c1)c1cc2ccc(-c3nccc(Nc4ccc5[nH]ncc5c4)n3)cc2[nH]1` [TDI01199, 6-(4-((1H-indazol-5-yl)amino)pyrimidin-2-yl)-N-(1H-pyrazol-4-yl)-1H-indole-2-carboxamide] it is 0.03 µM.

Consider `O=C(NC1CCOCC1)c1cc2ccc(-c3nccc(Nc4ccc(-c5cn[nH]c5)cc4)n3)cc2[nH]1` [TDI01338, 6-(4-((4-(1H-pyrazol-4-yl)phenyl)amino)pyrimidin-2-yl)-N-(tetrahydro-2H-pyran-4-yl)-1H-indole-2-carboxamide], for which the half-maximal inhibitory concentration (IC50) was found to be 0.115 µM. As for `CN(CC#N)C(=O)c1cc2ccc(-c3nccc(Nc4ccc(-c5cn[nH]c5)cc4)n3)cc2[nH]1` [TDI01430], the figure is 0.116 µM; as for `O=C(Nc1cccnc1)c1cc2ccc(-c3nccc(Nc4ccc5[nH]ncc5c4)n3)cc2[nH]1` [TDI01171, 6-(4-((1H-indazol-5-yl)amino)pyrimidin-2-yl)-N-(pyridin-3-yl)-1H-indole-2-carboxamide], 0.063 µM; as for `O=C(c1cc2ccc(-c3nccc(Nc4ccc(-c5cn[nH]c5)cc4)n3)cc2[nH]1)N1CCOC[C@H]1CO` [TDI01853, (R)-(6-(4-((4-(1H-pyrazol-4-yl)phenyl)amino)pyrimidin-2-yl)-1H-indol-2-yl)(3-(hydroxymethyl)morpholino)methanone], 0.275 µM.
